Results on 36 compounds are retold here after US20150272951A1, “COMPOUNDS FOR THE TREATMENT OF LYSOSOMAL STORAGE DISEASES” (The Hospital for Sick Children, priority 2010, published 2015).

One test deals with Hex A (Homo sapiens, UniProt P06865+P07686). Kind of test: Hex A inhibition (IC50 from dose response curves of Hex A residual activity).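 Note: remaining Hex A enzyme activity recorded across rising inhibitor doses, with dose response curves run at pH 6.5 and again at pH 4.5.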
In the next test the target is mutant Hex A (Homo sapiens, UniProt P06865+P07686). The class given is cell-based. The settings on record: for EC50: Hex A rescue, determined from graphs of FIGS. 5-7; for Max Increase: maximum increase in Hex A activity relative to untreated cells (=1); for Range of Increase: range of increase in Hex A activity. The method, then: Using the graphs of FIGS. 5-7, the EC50 values for Hex A rescue were determined as well as the maximum increase and range of increase in Hex A activity. These values are tabulated in Table 2, together with the IC50 values for Hex A inhibition that were determined in Example 3.

Where [1] appears, read: IC50 (μM ± Err), Hex A inhibition, values determined in Example 3, pH not given.
[2] abbreviates: IC50 (μM), without error, pH not stated.
Where [3] appears, read: IC50 (μM ± Err), in brackets, brackets: IC50 extrapolated from an incomplete dose response curve.
The mark [4] stands for this setting: IC50 (μM), compounds with bracketed IC50, extrapolated from an incomplete dose response curve.
The mark [5] stands for this setting: read-out: IC50 (μM ± Err), Hex A inhibition, values determined in Example 3, pH not given.

Each structure is given as a SMILES string. Like-named read-outs stand apart in the source and are kept apart here.

Chain of Hex A (P06865 89-529): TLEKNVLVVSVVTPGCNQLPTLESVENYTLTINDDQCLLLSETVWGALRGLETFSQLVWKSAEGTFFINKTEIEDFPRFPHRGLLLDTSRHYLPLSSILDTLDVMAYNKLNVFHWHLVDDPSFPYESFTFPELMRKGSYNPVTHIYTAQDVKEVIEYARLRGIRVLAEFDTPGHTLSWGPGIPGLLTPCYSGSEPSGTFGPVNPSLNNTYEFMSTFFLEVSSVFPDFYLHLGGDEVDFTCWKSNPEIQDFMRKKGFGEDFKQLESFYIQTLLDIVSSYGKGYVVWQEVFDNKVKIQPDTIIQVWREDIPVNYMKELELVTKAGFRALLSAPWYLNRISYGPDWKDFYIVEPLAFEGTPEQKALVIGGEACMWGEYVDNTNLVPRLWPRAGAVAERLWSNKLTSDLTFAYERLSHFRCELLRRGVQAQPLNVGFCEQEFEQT
Chain of Hex A (P07686 122-311 limits assumed): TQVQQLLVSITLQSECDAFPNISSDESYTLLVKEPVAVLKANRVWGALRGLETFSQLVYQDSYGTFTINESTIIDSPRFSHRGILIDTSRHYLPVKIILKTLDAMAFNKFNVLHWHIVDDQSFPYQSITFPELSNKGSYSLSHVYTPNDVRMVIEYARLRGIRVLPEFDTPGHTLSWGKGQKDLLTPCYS
Chain of Hex A (P07686 315-556 limits assumed): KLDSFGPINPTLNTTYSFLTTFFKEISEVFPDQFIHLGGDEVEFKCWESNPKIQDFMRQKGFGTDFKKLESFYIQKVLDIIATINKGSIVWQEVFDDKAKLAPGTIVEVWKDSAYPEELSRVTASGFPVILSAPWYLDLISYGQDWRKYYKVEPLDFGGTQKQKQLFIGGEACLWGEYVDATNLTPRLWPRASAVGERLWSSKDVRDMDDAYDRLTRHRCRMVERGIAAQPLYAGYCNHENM

`CC1=N[C@@H]2[C@@H](O)[C@H](O)[C@@H](CO)O[C@@H]2S1` [NGT, NAG-thiazoline, reference compound] had a pKHA at Hex A (pH dependence of Hex A inhibition) of 4.5.
The IC50 is the concentration at which inhibition is half-maximal. A word on the EC50: it is the concentration that produces a half-maximal response. Turning to `CCc1nc(N)nc(N)c1-c1ccc(C(F)(F)F)cc1` [jts16], on Hex A (setting [1]), inhibition was half-maximal at 18 ± 1 µM (IC50). This compound also came in with an IC50 against Hex A (setting [2]) of 17.7 µM. On mutant Hex A, the EC50 turned out to be 5.14 µM, the “Max Increase” value is reported as 1.3 and the “Range of Increase” value was found to be 4.
As to `CC(C)c1nc(N)nc(N)c1-c1ccc(Cl)cc1` [jts20], the 50% inhibitory concentration (IC50) at Hex A (setting [1]) came to 406 ± 2 µM; against Hex A (setting [2]), 406 µM.
As to `Cc1nc(N)nc(N)c1-c1ccc(Cl)cc1` [jts22], the IC50 against Hex A (setting [1]) amounted to 556 ± 1 µM; against Hex A (setting [2]), 556 µM.
In the case of `Cc1nc(N)nc(N)c1-c1ccccc1` [ksh3-05], the 50% inhibitory concentration (IC50) on Hex A (setting [3]) and on Hex A (setting [4]) was 1230 µM throughout.
`Cc1nc(N)nc(N)c1-c1ccc(F)cc1` [ksh3-14a]: the IC50 on Hex A (setting [3]) and on Hex A (setting [4]) was 923 µM in each case.
`Cc1ccc(-c2c(C)nc(N)nc2N)cc1` [ksh3-14b]: the 50% inhibitory concentration (IC50) at Hex A (setting [3]) and on Hex A (setting [4]) was 1720 µM throughout.
As for `Cc1ccc(-c2c(C)nc(N)nc2N)cc1` [ksh3-14c], the 50% inhibitory concentration (IC50) at Hex A (setting [3]) and at Hex A (setting [4]) was 3830 µM throughout.
`Cc1cccc(-c2c(C)nc(N)nc2N)c1` [ksh3-14d]: on Hex A (setting [3]), the IC50 is 10400 µM.
For `Cc1cc(C)cc(-c2c(C)nc(N)nc2N)c1` [ksh3-14e], the half-inhibitory concentration (IC50) on Hex A (setting [3]) and at Hex A (setting [4]) was 1230 µM in each case.
On Hex A (setting [1]), `CCc1nc(N)nc(N)c1-c1ccc(F)cc1` [ksh3-17] came in with a half-inhibitory concentration (IC50) of 50 ± 1 µM. The compound also displayed an IC50 at Hex A (setting [2]) of 50.4 µM. At mutant Hex A, a half-maximal response (EC50) required 8.24 µM, the “Max Increase” value is on record as 1.8 and the “Range of Increase” value is reported as 4.
Compound `CCc1nc(N)nc(N)c1-c1ccc(C)cc1` [ksh3-19b] yielded an IC50 at Hex A (setting [1]) of 72 ± 2 µM. Also, the half-maximal inhibitory concentration (IC50) against Hex A (setting [2]) is 72.3 µM. On mutant Hex A, a half-maximal response (EC50) required 4.44 µM, the “Max Increase” value is listed as 1.5 and the “Range of Increase” value is 4.
As for `CCc1nc(N)nc(N)c1-c1ccccc1C` [ksh3-19c], on Hex A (setting [1]), the IC50 came to 44 ± 1 µM. Further, the half-inhibitory concentration (IC50) at Hex A (setting [2]) stood at 43.7 µM. In addition, at mutant Hex A, a half-maximal effect (EC50) was put at 4.95 µM, the “Max Increase” value is listed as 1.9 and the “Range of Increase” value was determined as 4.
`CCc1nc(N)nc(N)c1-c1cccc(C)c1` [ksh3-19d] gave an IC50 at Hex A (setting [2]) of 34.5 µM. Moreover, on Hex A (setting [5]), the half-maximal inhibitory concentration (IC50) worked out at 34 ± 1 µM. Moreover, at mutant Hex A, the EC50 amounted to 6.67 µM, the “Max Increase” value is recorded as 2.1 and the “Range of Increase” value is 5.
For the compound `CCc1nc(N)nc(N)c1-c1cc(C)cc(C)c1` [ksh3-19e], the 50% inhibitory concentration (IC50) at Hex A (setting [5]) worked out at 47 ± 1 µM. The same compound returned a 50% inhibitory concentration (IC50) against Hex A (without error, pH not stated) of 47.4 µM. Also, at mutant Hex A, the midpoint of the response, the EC50, lay at 16.4 µM; the “Max Increase” value was 2.2; the “Range of Increase” value is 3.
On to `CCCc1nc(N)nc(N)c1-c1ccccc1` [ksh3-29], for which the half-maximal inhibitory concentration (IC50) at Hex A (setting [1]) came out at 37 ± 1 µM. Half-maximal inhibition against Hex A (setting [2]) (IC50) required 36.6 µM. For the same compound, at mutant Hex A, the midpoint of the response, the EC50, lay at 12.1 µM; the “Max Increase” value was determined as 1.6; the “Range of Increase” value was 3.
At Hex A (setting [1]), `CCCc1nc(N)nc(N)c1-c1ccc(F)cc1` [ksh3-33a] had a concentration for half-maximal inhibition (IC50) of 39 ± 1 µM. This compound had an IC50 at Hex A (setting [2]) of 39.1 µM. In addition, on mutant Hex A, the EC50 was 12.5 µM, the “Max Increase” value is 1.4 and the “Range of Increase” value is on record as 4.
On to `CCCc1nc(N)nc(N)c1-c1ccccc1C` [ksh3-33c], for which the IC50 on Hex A (setting [3]) is 825 µM.
In turn, `CCCc1nc(N)nc(N)c1-c1cccc(C)c1` [ksh3.33d] yielded an IC50 against Hex A (setting [1]) of 50 ± 1 µM. The same compound returned a 50% inhibitory concentration (IC50) against Hex A (setting [2]) of 50.4 µM. Further, on mutant Hex A, a half-maximal response (EC50) required 14.8 µM, the “Max Increase” value is reported as 1.7 and the “Range of Increase” value came out at 3.
For the compound `CCCc1nc(N)nc(N)c1-c1cc(C)cc(C)c1` [ksh3.33e], the results for the IC50 against Hex A (setting [1]) and on Hex A (setting [2]) were 24 ± 1 µM and 24.4 µM, respectively. For the same compound, the “Max Increase” value at mutant Hex A came to 1.6. Also, the “Range of Increase” value on mutant Hex A turned out to be 1.
As to `CCc1ncncc1-c1ccc(C(F)(F)F)cc1` [vsa4], the IC50 at Hex A (setting [3]) was 2110 µM.
For `CCc1nc(N)nc(N)c1-c1ccc(C(F)(F)F)cc1` [vsa5], half-maximal inhibition against Hex A (setting [2]) (IC50) was put at 14.7 µM. Moreover, the 50% inhibitory concentration (IC50) on Hex A (setting [5]) was 15 ± 1 µM. Besides, on mutant Hex A, the concentration for a half-maximal effect (EC50) stood at 2.24 µM, the “Max Increase” value came to 1.4 and the “Range of Increase” value came to 3.
Regarding `CCc1ncnc(N)c1-c1ccc(C(F)(F)F)cc1` [vsa6], the concentration for half-maximal inhibition (IC50) at Hex A (setting [3]) and on Hex A (setting [4]) was 936 µM in each case.
As to `CCC1=C(c2ccc(Cl)cc2)C(N)=NCN1` [vsa8], the half-inhibitory concentration (IC50) at Hex A (setting [3]) and on Hex A (setting [4]) was 967 µM each time.
As for `CCc1[nH]c(=O)nc(N)c1-c1ccc(Cl)cc1` [vsa9], the half-maximal inhibitory concentration (IC50) on Hex A (setting [3]) is 400 µM.
Take `CCCCc1nc(N)nc(N)c1-c1ccc(Cl)cc1` [zjm1-91]: the IC50 on Hex A (setting [3]) and on Hex A (setting [4]) was 1360 µM each time.
As for `CCCCc1nc(N)nc(N)c1-c1ccc(C)cc1` [zjm1-111], the 50% inhibitory concentration (IC50) on Hex A (setting [3]) and at Hex A (setting [4]) was 600 µM throughout.
With `CCCCc1nc(N)nc(N)c1-c1ccc(OC)cc1` [zjm1-113], the IC50 on Hex A (setting [3]) and on Hex A (setting [4]) was 870 µM in each case.
In the case of `CCCCc1nc(N)nc(N)c1-c1ccc(C(F)(F)F)cc1` [zjm1-115], the 50% inhibitory concentration (IC50) is 142 ± 3 µM on Hex A (setting [1]) and 142 µM against Hex A (setting [2]).
As for `CCCc1nc(N)nc(N)c1-c1ccc(Cl)cc1` [zjm1-135], the 50% inhibitory concentration (IC50) on Hex A (setting [5]) turned out to be 18 ± 1 µM. The half-maximal inhibitory concentration (IC50) on Hex A (without error, pH not stated) was 17.9 µM. In addition, on mutant Hex A, the EC50 was determined as 7.14 µM, the “Max Increase” value worked out at 1.4 and the “Range of Increase” value is 3.
Compound `CCCc1nc(N)nc(N)c1-c1ccc(C)cc1` [zjm1-137] came in with an IC50 against Hex A (setting [1]) of 28 ± 1 µM. This compound gave a half-inhibitory concentration (IC50) at Hex A (setting [2]) of 28.4 µM. At mutant Hex A, it took 4.6 µM to reach a half-maximal effect (EC50), the “Max Increase” value is on record as 2.0 and the “Range of Increase” value was found to be 3.
Taken in the same sequence, the figures for `CCCc1nc(N)nc(N)c1-c1ccc(OC)cc1` [zjm1-139] were 28 ± 1 µM, 28.2 µM, 14.2 µM, 2.3 and 4.
Regarding `CCCc1nc(N)nc(N)c1-c1ccc(C(F)(F)F)cc1` [zjm1-141], half-maximal inhibition against Hex A (setting [1]) (IC50) was put at 16 ± 1 µM. This compound showed a half-maximal inhibitory concentration (IC50) on Hex A (setting [2]) of 15.9 µM. Also, at mutant Hex A, it took 11.6 µM to reach a half-maximal effect (EC50), the “Max Increase” value was 1.5 and the “Range of Increase” value is recorded as 3.
`NCc1nc(N)nc(N)c1-c1ccc(Cl)cc1` [zjm7-27]: the half-inhibitory concentration (IC50) turned out to be 176 ± 1 µM on Hex A (setting [1]) and 176 µM on Hex A (setting [2]). Besides, at mutant Hex A, the “Max Increase” value is given as 1.4. Besides, at mutant Hex A, the “Range of Increase” value is 1.
`CCc1nc(N)nc(N)c1-c1cccs1` [zjm7-67] returned an IC50 against Hex A (setting [1]) of 31 ± 1 µM. Further, the concentration for half-maximal inhibition (IC50) at Hex A (setting [2]) stood at 30.8 µM. In addition, at mutant Hex A, it took 6.46 µM to reach a half-maximal effect (EC50), the “Max Increase” value was determined as 1.7 and the “Range of Increase” value stood at 2.
For the compound `CCc1nc(N)nc(N)c1-c1ccsc1` [zjm7-69], on Hex A (setting [1]), the IC50 came out at 55 ± 1 µM. Moreover, the concentration for half-maximal inhibition (IC50) against Hex A (setting [2]) came to 55 µM. Moreover, at mutant Hex A, a half-maximal response (EC50) required 10 µM, the “Max Increase” value amounted to 1.9 and the “Range of Increase” value was 4.
